The source of these data is publication PMC8003485, “Synthesis and Evaluation of Novel α-Aminoamides Containing Benzoheterocyclic Moiety for the Treatment of Pain” (Molecules, 2021).

Assay [1] relates to ICR (CD−1) male mice. Briefly: Formalin test (mouse, phase II paw licking). The assay is classed as in vivo. The following applies: 10 mg/kg, i.p., phase II (15–30 min), mean ± SD, n = 8; for inhibition in vivo at 10 mg/kg: Mus musculus, ip, read-out: % Analgesia (formalin test). How it is done: The formalin test was carried out using the method described previously. During the formalin test, Institute of Cancer Research (ICR; CD−1) male mice (weight: 22–25 g) were acclimated to the environment for two days before the experiment with food and water available freely. The mice were housed under a 12 h/12 h light/dark cycle. The temperature and humidity of the room were kept at 25 ± 2 °C and 50–60%, respectively. The mice were divided into a vehicle group, a ralfinamide group, and test compound groups randomly, with eight mice in each group. All compounds were dissolved in saline and administered by intraperitoneal injection (n = 8) or intragastric administration by mouth (n = 8) at 10 mg/kg. The vehicle group was given the same volume of saline.
After administration, the mice were placed into polyvinyl chloride (PVC) observation chambers. Thirty minutes later, the mice were injected subcutaneously with 20 μL of 2.7% formalin solution into the surface of their right hind paw and were returned to their PVC chambers immediately to observe their behavior. The cumulative time each mouse licked its right hind paw during phase II (15–30 min) was recorded as its painful time in phase II. The analgesic effects of the compounds were presented as the mean ± standard deviation. The data were analyzed by SPSS using one-way analysis of variance followed by Dunnett’s test. The analgesic activity of the test compounds was calculated according to the following formula. %Analgesia=Average Time (Vehicle)−Average Time (Drug)/Average Time (Vehicle)× 100%

A further assay has as its target T1, hNav1.7 (Homo sapiens, UniProt Q15858).
T1 construct: expressed in transfected cells; host or cells: HEK293
Briefly: Whole-cell patch clamp assay for hNav1.7 inhibition (HEK293 cells stably expressing hNav1.7). In kind it is cell-based. The following applies: for inhibition at 10 µM: HEK293, TTX-sensitive Nav1.7 current, mean ± SD. How it is done:
The compounds were tested as hNav1.7 peak current inhibitors at room temperature using human embryonic kidney 293 cells stably expressing hNav1.7. The holding voltage was depolarized to 0 mV from −120 mV for 20 ms and restored to −75 mV for 8 s. After that, the membrane potential was recovered to −120 mV for 20 ms and then depolarized to 0 mV for another 20 ms. Finally, the voltage was renewed to −120 mV for 30 ms. The potential was applied every 20 s. The compounds were administered when the voltage of hNav1.7 recorded by the whole-cell patch clamp was stable. Every compound concentration was tested for 5 min, and all compounds were tested at several concentrations and with multiple cells.

The next assay deals with ICR (CD-1) male mice. Briefly: Acetic acid-induced writhing test. The assay is classed as in vivo. The following applies: 10 mg/kg, i.p.; writhes in 20 min; mean ± SD, n = 6. As to the method:
The writhing test was performed according to a previously reported method. The ICR (CD-1) male mice (weight: 22–25 g) were treated as for the formalin test in the same environment. The mice were divided into a vehicle group, a ralfinamide group, and test compound groups randomly, with six mice in each group. All compounds were dissolved in saline and administered by intraperitoneal injection at 10 mg/kg. The vehicle group was given the same volume of saline. After administration, the mice were placed into PVC chambers. Thirty minutes later, the mice were injected with 1% acetic acid solution at 10 mL/kg by intraperitoneal injection and placed into the observation chambers immediately to record the number of writhes each mouse had in 20 min. The results were presented as the mean ± standard deviation. The analytical method was the same as that for the formalin test, and the analgesic activity of each compound was calculated by the following formula. %Analgesia=Average Number (Vehicle)−Average Number (Drug)/Average Number (Vehicle)× 100%

Another assay has as its target T2, hNav1.8 (Homo sapiens, UniProt Q9Y5Y9).
T2 construct: expressed in transfected cells; host or cells: CHO
Briefly: Whole-cell patch clamp assay for hNav1.8 inhibition (CHO cells stably expressing hNav1.8). The assay is classed as cell-based. Particulars: Nav1.8 inactivated state Na+ currents. How it is done: The whole-cell patch clamp assay assessing the hNav1.8 current was carried out at room temperature with Chinese hamster ovary cells stably expressing hNav1.8. The holding voltage of the membrane was transferred to 0 mV from −120 mV for 50 ms and then restored to −50 mV for 8 s. After that, the membrane potential was renewed to −120 mV for 20 ms, which was followed by a depolarization to 0 mV for 50 ms. Finally, the potential was recovered to the holding voltage of −120 mV for 30 ms. This process was performed every 20 s. The compounds were administered when the voltage of hNav1.8 was stable. Every compound concentration was tested for 5 min, and all compounds were tested at several concentrations and with multiple cells.

Assay [2] concerns ICR (CD−1) male mice. Briefly: Formalin test (mouse, phase II paw licking). The following applies: 20 mg/kg, dose-effect relationship assay. The assay is classed as in vivo.
In the next assay the target is T3, hNav1.5 (Homo sapiens, UniProt Q14524).
T3 construct: expressed in transfected cells; host or cells: HEK293
Briefly: Assay for hNav1.5 inhibition (HEK293 cells stably expressing hNav1.5). In kind it is cell-based. Particulars: HEK293; 10 µM; read-out: Inhibitory Effect to Nav1.5. How it is done: The inhibition of the compounds to hNav1.5 peak current was performed at room temperature using HEK293 cells that could express hNav1.5 stably. The holding voltage of the membrane was transferred to 0 mV from −120 mV for 50 ms and then restored to −50 mV for 8 s. After that, the membrane potential was renewed to −120 mV for 20 ms, followed by a depolarization to 0 mV for 50 ms. At last, the potential was recovered to the holding voltage −120 mV for 30 ms. This progress was performed every 20 s. The compounds were administrated when the voltage of hNav1.5 was stable. Every concentration was tested for 5 min and all compounds were tested at several concentrations and with multiple cells.

[3] abbreviates: read-out: Inhibitory Effect against Nav1.7, Activated State (TP−1).
Where [4] appears, read: read-out: Inhibitory Effect against Nav1.7, Inactivated State (TP−2).

Where two headings read alike, the source gives them in different places.

T1 sequence (Q15858 whole entry): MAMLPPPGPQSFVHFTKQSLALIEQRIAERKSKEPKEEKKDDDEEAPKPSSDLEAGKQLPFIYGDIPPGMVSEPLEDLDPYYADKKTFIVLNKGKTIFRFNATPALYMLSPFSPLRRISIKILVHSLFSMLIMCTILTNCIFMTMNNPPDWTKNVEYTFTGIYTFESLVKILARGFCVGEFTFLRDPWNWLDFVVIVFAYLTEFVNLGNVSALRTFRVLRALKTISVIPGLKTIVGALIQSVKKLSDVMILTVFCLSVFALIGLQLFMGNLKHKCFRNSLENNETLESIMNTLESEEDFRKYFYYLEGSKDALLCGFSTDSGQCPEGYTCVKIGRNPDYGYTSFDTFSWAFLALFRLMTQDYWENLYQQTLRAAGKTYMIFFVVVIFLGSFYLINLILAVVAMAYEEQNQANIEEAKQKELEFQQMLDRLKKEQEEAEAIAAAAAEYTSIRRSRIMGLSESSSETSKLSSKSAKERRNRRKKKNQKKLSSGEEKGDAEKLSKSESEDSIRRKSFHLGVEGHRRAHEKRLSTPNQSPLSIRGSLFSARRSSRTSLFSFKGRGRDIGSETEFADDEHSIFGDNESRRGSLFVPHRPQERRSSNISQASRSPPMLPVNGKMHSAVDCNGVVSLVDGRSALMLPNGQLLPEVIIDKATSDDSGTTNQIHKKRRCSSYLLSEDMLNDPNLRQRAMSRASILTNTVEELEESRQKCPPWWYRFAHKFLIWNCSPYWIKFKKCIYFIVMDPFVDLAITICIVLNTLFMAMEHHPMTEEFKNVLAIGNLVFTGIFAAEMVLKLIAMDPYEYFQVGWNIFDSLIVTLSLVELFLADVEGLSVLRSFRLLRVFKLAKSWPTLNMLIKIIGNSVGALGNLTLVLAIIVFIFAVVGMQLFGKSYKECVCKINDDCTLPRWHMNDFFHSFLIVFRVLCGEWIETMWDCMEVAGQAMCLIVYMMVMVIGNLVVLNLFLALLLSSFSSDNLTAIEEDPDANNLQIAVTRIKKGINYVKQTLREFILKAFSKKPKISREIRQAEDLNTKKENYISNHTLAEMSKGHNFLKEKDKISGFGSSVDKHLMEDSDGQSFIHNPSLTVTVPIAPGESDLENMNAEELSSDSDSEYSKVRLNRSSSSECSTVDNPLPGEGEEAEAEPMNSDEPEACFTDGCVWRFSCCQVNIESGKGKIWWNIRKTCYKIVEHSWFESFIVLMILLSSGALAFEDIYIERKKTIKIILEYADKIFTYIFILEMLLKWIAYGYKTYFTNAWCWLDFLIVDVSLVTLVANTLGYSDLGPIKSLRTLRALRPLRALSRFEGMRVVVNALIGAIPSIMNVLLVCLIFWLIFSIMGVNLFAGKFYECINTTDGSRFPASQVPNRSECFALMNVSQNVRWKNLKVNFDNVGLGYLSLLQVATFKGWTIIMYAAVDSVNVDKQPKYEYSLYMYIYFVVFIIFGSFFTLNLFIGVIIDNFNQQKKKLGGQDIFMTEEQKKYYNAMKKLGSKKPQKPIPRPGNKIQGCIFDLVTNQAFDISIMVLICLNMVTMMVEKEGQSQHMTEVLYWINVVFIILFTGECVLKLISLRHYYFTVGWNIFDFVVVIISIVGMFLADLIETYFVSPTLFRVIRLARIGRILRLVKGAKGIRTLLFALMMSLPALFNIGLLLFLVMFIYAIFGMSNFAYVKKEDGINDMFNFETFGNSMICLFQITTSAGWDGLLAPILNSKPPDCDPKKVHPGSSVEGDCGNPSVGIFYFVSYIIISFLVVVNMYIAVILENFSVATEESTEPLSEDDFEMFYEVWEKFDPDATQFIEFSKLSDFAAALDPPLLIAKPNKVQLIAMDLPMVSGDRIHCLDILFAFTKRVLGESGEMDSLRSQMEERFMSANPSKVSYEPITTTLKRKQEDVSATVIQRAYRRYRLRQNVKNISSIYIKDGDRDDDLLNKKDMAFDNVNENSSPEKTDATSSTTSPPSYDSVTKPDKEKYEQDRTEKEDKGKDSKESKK
T2 sequence (Q9Y5Y9 whole entry): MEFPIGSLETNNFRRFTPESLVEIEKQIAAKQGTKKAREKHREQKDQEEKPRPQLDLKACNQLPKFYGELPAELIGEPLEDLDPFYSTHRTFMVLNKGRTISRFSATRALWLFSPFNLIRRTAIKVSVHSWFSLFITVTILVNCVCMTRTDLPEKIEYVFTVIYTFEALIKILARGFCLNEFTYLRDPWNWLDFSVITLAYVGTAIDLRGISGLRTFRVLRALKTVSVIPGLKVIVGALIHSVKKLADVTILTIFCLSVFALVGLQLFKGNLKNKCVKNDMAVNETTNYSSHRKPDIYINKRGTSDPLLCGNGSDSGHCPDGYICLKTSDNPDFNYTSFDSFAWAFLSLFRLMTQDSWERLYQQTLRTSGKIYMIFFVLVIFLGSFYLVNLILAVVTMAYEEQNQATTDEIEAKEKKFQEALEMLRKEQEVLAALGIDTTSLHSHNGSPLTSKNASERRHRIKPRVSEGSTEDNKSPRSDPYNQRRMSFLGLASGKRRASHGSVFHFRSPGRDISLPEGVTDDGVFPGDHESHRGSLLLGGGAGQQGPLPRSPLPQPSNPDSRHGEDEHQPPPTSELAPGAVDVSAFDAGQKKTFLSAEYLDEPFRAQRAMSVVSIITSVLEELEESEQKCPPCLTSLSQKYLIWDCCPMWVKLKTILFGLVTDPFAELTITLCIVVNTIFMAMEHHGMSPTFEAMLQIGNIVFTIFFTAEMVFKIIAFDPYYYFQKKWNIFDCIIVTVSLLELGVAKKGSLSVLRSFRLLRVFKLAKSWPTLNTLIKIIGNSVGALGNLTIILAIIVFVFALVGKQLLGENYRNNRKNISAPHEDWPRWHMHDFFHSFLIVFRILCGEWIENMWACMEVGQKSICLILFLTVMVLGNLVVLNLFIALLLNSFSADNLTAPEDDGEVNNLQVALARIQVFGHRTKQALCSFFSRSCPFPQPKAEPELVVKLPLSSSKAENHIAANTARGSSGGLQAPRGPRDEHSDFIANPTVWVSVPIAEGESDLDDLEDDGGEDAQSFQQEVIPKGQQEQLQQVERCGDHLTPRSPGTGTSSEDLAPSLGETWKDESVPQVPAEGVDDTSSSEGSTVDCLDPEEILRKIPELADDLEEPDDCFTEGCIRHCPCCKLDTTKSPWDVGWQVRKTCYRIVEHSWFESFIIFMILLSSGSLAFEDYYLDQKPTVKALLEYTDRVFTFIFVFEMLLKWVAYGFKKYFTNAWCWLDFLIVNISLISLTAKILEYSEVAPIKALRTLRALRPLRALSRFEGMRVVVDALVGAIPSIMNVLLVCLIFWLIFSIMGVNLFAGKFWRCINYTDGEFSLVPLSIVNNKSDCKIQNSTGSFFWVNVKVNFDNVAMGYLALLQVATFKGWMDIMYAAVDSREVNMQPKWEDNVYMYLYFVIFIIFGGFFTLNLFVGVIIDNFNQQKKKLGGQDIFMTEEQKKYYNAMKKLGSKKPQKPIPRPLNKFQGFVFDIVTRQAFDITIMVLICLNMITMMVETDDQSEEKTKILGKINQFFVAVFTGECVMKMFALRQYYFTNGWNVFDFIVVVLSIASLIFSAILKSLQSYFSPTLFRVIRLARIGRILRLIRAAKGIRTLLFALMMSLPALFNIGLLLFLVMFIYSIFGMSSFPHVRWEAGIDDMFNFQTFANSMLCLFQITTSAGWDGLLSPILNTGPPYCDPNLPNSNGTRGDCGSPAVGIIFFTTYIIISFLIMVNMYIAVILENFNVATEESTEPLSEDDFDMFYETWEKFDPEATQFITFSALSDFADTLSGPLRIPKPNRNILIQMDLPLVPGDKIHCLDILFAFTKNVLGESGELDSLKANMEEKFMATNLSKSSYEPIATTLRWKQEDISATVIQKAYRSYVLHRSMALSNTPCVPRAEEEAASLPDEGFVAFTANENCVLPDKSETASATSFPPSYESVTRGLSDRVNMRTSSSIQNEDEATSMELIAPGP

Regarding `C[C@H](NCc1cccc(COc2cccc3[nH]cnc23)c1)C(N)=O` [Compound 5a, (S)-2-((3-(((1H-Benzo[d]imidazol-4-yl)oxy)methyl)benzyl)amino)propanamide], the inhibition in vivo at 10 mg/kg in the assay with ICR (CD−1) male mice [1] is 51 ± 21.6%. The inhibition at 10 µM at hNav1.7 (setting [3]) was 5.1 ± 1.2%; on hNav1.7 (setting [4]), 10.7 ± 0.4%.
Regarding `C[C@H](NCc1ccc(COc2cccc3[nH]cnc23)cc1)C(N)=O` [Compound 5b, (S)-2-((4-(((1H-Benzo[d]imidazol-4-yl)oxy)methyl)benzyl)amino)propanamide], in the assay with ICR (CD−1) male mice [1], the inhibition in vivo at 10 mg/kg was found to be 27.4 ± 19.2%. Besides, the figures for the inhibition at 10 µM on hNav1.7 (setting [3]) and on hNav1.7 (setting [4]) were 3.7 ± 2% and 1.4 ± 0.6%, respectively.
On the same counts, the results for `C[C@H](NCc1cccc(COc2ccc3[nH]cnc3c2)c1)C(N)=O` [Compound 5c, (S)-2-((3-(((1H-Benzo[d]imidazol-5-yl)oxy)methyl)benzyl)amino)propanamide] are 48.8 ± 15.5%, 1.7 ± 0.3% and 2.6 ± 0.8%.
For the compound `C[C@H](NCc1ccc(COc2ccc3[nH]cnc3c2)cc1)C(N)=O` [Compound 5d, (S)-2-((4-(((1H-Benzo[d]imidazol-5-yl)oxy)methyl)benzyl)amino)propanamide], the inhibition in vivo at 10 mg/kg with ICR (CD−1) male mice [1] was 60.8 ± 32.2%. Further, the inhibition at 10 µM on hNav1.7 (setting [3]) turned out to be 0.7 ± 0.8%; on hNav1.7 (setting [4]), 1.5 ± 0.9%.
For the compound `C[C@H](NCc1ccc(COc2cccc3occc23)cc1)C(N)=O` [Compound 6b, (S)-2-((4-((Benzofuran-4-yloxy)methyl)benzyl)amino)propanamide], in the assay with ICR (CD-1) male mice, the “% Analgesia (acetic acid-induced writhing test)” value is on record as 48.0 ± 5.8 ^☆ %. In the assay with ICR (CD−1) male mice [1], the inhibition in vivo at 10 mg/kg came out at 48.4 ± 26.4%. Also, the results for the inhibition at 10 µM at hNav1.7 (setting [3]) and on hNav1.7 (setting [4]) were 11.8 ± 0.3% and 55.5 ± 2.5%, respectively.
In the case of `C[C@H](NCc1cccc(COc2ccc3occc3c2)c1)C(N)=O` [Compound 6c, (S)-2-((3-((Benzofuran-5-yloxy)methyl)benzyl)amino)propanamide], the “% Analgesia (acetic acid-induced writhing test)” value with ICR (CD-1) male mice is reported as 11.2 ± 7.6%. Moreover, the inhibition in vivo at 10 mg/kg in the assay with ICR (CD−1) male mice [1] is 30.2 ± 19.8%. The inhibition at 10 µM at hNav1.7 (setting [3]) turned out to be 12.2 ± 0.7%; on hNav1.7 (setting [4]) it was 48.1 ± 4.2%.
As for `C[C@H](NCc1ccc(COc2ccc3occc3c2)cc1)C(N)=O` [Compound 6d, (S)-2-((4-((Benzofuran-5-yloxy)methyl)benzyl)amino)propanamide], the “% Analgesia (acetic acid-induced writhing test)” value in the assay with ICR (CD-1) male mice is recorded as 28.9 ± 8.5 %. Besides, the inhibition in vivo at 10 mg/kg with ICR (CD−1) male mice [1] worked out at 42.2 ± 16.3%. For the same compound, the inhibition at 10 µM is 10.9 ± 1.1% at hNav1.7 (setting [3]) and 31.8 ± 0.3% at hNav1.7 (setting [4]).
Regarding `C[C@H](NCc1cccc(COc2cccc3ncccc23)c1)C(N)=O` [Compound 7a, (S)-2-((3-((Quinolin-5-yloxy)methyl)benzyl)amino)propanamide], the inhibition in vivo at 10 mg/kg in the assay on ICR (CD−1) male mice [1] stood at 48 ± 27.8%. Moreover, the inhibition at 10 µM on hNav1.7 (setting [3]) amounted to 6.4 ± 4.9%; at hNav1.7 (setting [4]), 23.8 ± 3.6%.
`C[C@H](NCc1ccc(COc2cccc3ncccc23)cc1)C(N)=O` [Compound 7b, (S)-2-((4-((Quinolin-5-yloxy)methyl)benzyl)amino)propanamide]: the inhibition in vivo at 10 mg/kg with ICR (CD−1) male mice [1] came to 37.2 ± 25.3%. The inhibition at 10 µM on hNav1.7 (setting [3]) turned out to be 14.7 ± 5.4%; at hNav1.7 (setting [4]), 29.8 ± 0.6%.
As for `C[C@H](NCc1cccc(COc2ccc3ncccc3c2)c1)C(N)=O` [Compound 7c, (S)-2-((3-((Quinolin-6-yloxy)methyl)benzyl)amino)propanamide], the inhibition in vivo at 10 mg/kg in the assay with ICR (CD−1) male mice [1] was 81.5 ± 14.8%. Besides, the figures for the inhibition at 10 µM at hNav1.7 (setting [3]) and on hNav1.7 (setting [4]) were 8.6 ± 1.2% and 30 ± 2.9%, respectively.
On the same counts, the results for `C[C@H](NCc1ccc(COc2ccc3ncccc3c2)cc1)C(N)=O` [Compound 7d, (S)-2-((4-((Quinolin-6-yloxy)methyl)benzyl)amino)propanamide] are 20.9 ± 18.7%, 3.7 ± 0.5% and 13.5 ± 0.4%.
`C[C@H](NCc1cccc(COc2ccc3cccnc3c2)c1)C(N)=O` [Compound 7e, (S)-2-((3-((Quinolin-7-yloxy)methyl)benzyl)amino)propanamide]: the inhibition in vivo at 10 mg/kg with ICR (CD−1) male mice [1] was 30.6 ± 14.7%. Further, the inhibition at 10 µM at hNav1.7 (setting [3]) amounted to 3.6 ± 3.3%; at hNav1.7 (setting [4]) it was 47.7 ± 2.7%.
For the compound `C[C@H](NCc1ccc(COc2ccc3cccnc3c2)cc1)C(N)=O` [Compound 7f, (S)-2-((4-((Quinolin-7-yloxy)methyl)benzyl)amino)propanamide], the inhibition in vivo at 10 mg/kg with ICR (CD−1) male mice [1] came to 15.9 ± 17.6%. The inhibition at 10 µM on hNav1.7 (setting [3]) was -1.8 ± 3.2%; at hNav1.7 (setting [4]), 31.6 ± 3.4%.
`C[C@H](NCc1cccc(COc2cccc3cccnc23)c1)C(N)=O` [Compound 7g, (S)-2-((3-((Quinolin-8-yloxy)methyl)benzyl)amino)propanamide]: the inhibition in vivo at 10 mg/kg with ICR (CD−1) male mice [1] is 35.6 ± 26.1%. For the same compound, the results for the inhibition at 10 µM at hNav1.7 (setting [3]) and on hNav1.7 (setting [4]) were 14.7 ± 0.2% and 46 ± 0.1%, respectively.
On the same counts, the results for `C[C@H](NCc1ccc(COc2cccc3cccnc23)cc1)C(N)=O` [Compound 7h, (S)-2-((4-((Quinolin-8-yloxy)methyl)benzyl)amino)propanamide] are 57.2 ± 30.1%, 9.1 ± 4.3% and 38.6 ± 4.7%.
Regarding `C[C@H](NCc1ccc(OCc2ccccc2F)cc1)C(N)=O` [Ralfinamide, reference compound], the IC50 is 36.3 ± 8.9 µM at hNav1.8 and 6.6 ± 1.6 µM against hNav1.7 (Table 4, TTX-sensitive inactivated Nav1.7 current). For the same compound, the “% Analgesia (acetic acid-induced writhing test)” value in the assay on ICR (CD-1) male mice is recorded as 44.4 ± 15.5 ^☆ %. In addition, the “% Analgesia (formalin test)” value with ICR (CD−1) male mice [1] is 42.4 ± 23.3 %. For the same compound, in the assay on ICR (CD−1) male mice [1], the inhibition in vivo at 10 mg/kg was 42.4%. For the same compound, the “Analgesic response (formalin test)” value in the assay with ICR (CD−1) male mice [2] stood at 59.7%. Moreover, the inhibition at 10 µM at hNav1.5 came to 64.6 ± 3.2%; at hNav1.7 (setting [3]), 8.1 ± 3.8%; on hNav1.7 (setting [4]), 57.7 ± 3.4%.
